“Also recorded” adds a separate entry of the source.
Experiments:
[1] = tested on: indigenous contaminating bacteria in fermentation mash from commercial ethanol plants; assay: Reduction of indigenous contaminating bacterial levels in ethanol fermentation mash; assay type: cell-based; conditions: crude form
Experimental: FIG. 1 is a schematic representation of the proteins responsible for producing the bacteriocin of the invention. The inhibitory activity spectrum of GP15cin against different strains was determined. The active concentration range and the minimum inhibition concentration of the bacteriocin are determined using different indicator strains. The activity levels of the bacteriocin present in the raw bacterial culture supernatants and/or in partially purified mixtures were also determined. […] FIG. 2 to FIG. 11 show the effectiveness of GP15cin in reducing the total levels of indigenous bacteria presented in fermentation mash from different commercial ethanol plants. The exact identities of the indigenous bacteria population in different plants are unknown and are likely highly diverse.
GP15cin described herein were produced by a L. plantarum strain, which was isolated from the indigenous LAB populations present during commercial ethanol fermentation. GP15cin can act towards species and/or strains of similar indigenous LAB populations and thus can be used as an effective control for contaminating LAB. […] Either fermentor or mash cooler mash samples were collected from 6 different commercial ethanol plants on 13 different days from 2012 to 2014. Results of 15 independent tests are shown. […]

contaminating LAB = assay: Lactic acid and acetic acid levels during laboratory-scale ethanol fermentation; assay type: cell-based, lactic acid bacteria
Description: GP15cin described herein were produced by a L. plantarum strain, which was isolated from the indigenous LAB populations present during commercial ethanol fermentation. GP15cin can act towards species and/or strains of similar indigenous LAB populations and thus can be used as an effective control for contaminating LAB. […] Either fermentor or mash cooler mash samples were collected from 6 different commercial ethanol plants on 13 different days from 2012 to 2014. Results of 15 independent tests are shown. […] It is likely that the effects on controlling contaminating bacteria and acids will be even more significant if a higher dose of […] is used. The presented results highlight the feasibility of GP15cin application for control of unwanted bacteria in ethanol and other biofuel industries.

[2] = tested on: non-LAB isolates, such as strains of Staphylococcus, Enterobacter, Bacillus, and Clostridium; assay: Inhibitory activity spectrum: culture supernatant spotted onto indicator bacterial lawns; assay type: cell-based
Experimental: (§1) FIG. 1 is a schematic representation of the proteins responsible for producing the bacteriocin of the invention. In the discovery of the unique broad spectrum bacteriocin of this invention, indigenous LAB were isolated and purified from the fermentation mash of the commercial ethanol fermentation plants. The identities of the isolates were determined to the species level based on their 16s rDNA sequences. The capability of the isolated LAB strains to produce antimicrobial compounds was identified. Culture supernatants of the strains to be tested were spotted onto individual indicator bacterial culture lawns, which were prepared using a variety of LAB strains of different genera. […] Any positive activity of bacterial growth inhibition from the tested culture supernatant was confirmed again in the same manner, and the inhibitory activity spectrum of the antimicrobial compound is determined. […]
(§2) FIG. 1 is a schematic representation of the proteins responsible for producing the bacteriocin of the invention. The inhibitory activity spectrum of GP15cin against different strains was determined. The active concentration range and the minimum inhibition concentration of the bacteriocin are determined using different indicator strains. The activity levels of the bacteriocin present in the raw bacterial culture supernatants and/or in partially purified mixtures were also determined. […]

[3] = tested on: LAB isolates from commercial ethanol plants (multiple species of Lactobacillus, Lactococcus, Weissella, Leuconostoc, Pediococcus, Enterococcus, and …); assay: as above; assay type: cell-based, lactic acid bacteria
Experimental: as §1, §2

[4] = tested on: Lactobacillus fermentum strain 0315-25; assay: Batch culture growth inhibition, bacteriocin and phage alone and combined; assay type: cell-based; conditions: 24 h
Experimental: Bacteriocin alone, bacteriophage alone, and bacteriocin combined with phage were tested against Lactobacillus in batch culture systems. To be specific, logarithmic growth phase cultures of Lactobacillus fermentum strain 0315-25 (OD600 being 0.1) were treated either with single agent at different doses, such as bacteriocin GP15cin alone at different doses (0.1%, 1%, and 10%, v/v), or a phage designated herein as LferInf alone at different MOIs (0.1, 1, and 10), or two agents combined together at different doses, such as 0.1% GP15cin plus LferInf at MOI of 0.1, 0.1% GP15cin plus phage LferInf at MOI of 1, 1% GP15cin plus LferInf at MOI of 0.1, and 1% GP15cin plus phage LferInf at MOI of 1. Culture without any treatment was served as control. LferInf is a bacteriophage isolated from wastewater and found to be effective against a broad host range of Lactobacillus and described in more detail below. The growth of bacteria was monitored for 24 h, and the treatment effects were compared.

[5] = tested on: Lactobacillus GP15 (production host); assay: Activity against own production host; assay type: cell-based, Lactobacillus plantarum
Description: As noted above, GP-15cin may be applied alone or in combination with other bacteriocin and/or bacteriophage virulent for unwanted bacteria in the same system. Bacteriocin producing hosts are immune to the bacteriocins produced by themselves. GP-15cin is therefore not active against its own production host, […]. […] Therefore it is desirable to combine GP-15cin with a different bacteriocin in a cocktail that will kill the bacteria insensitive to GP15cin. Additionally GP-15cin may be combined with other antimicrobial agents to broaden the scope of effectiveness against the range of unwanted bacteria that are targeted. For example the combination of bacteriocin and bacteriophage (phage) ensures a broader inhibition spectrum and more efficient control of the bacteria contamination. Phage targeting these non-sensitive strains can be isolated, and be combined with the bacteriocin for a complete control of contaminating bacteria.

[6] = Stability of bacteriocin activity at different temperatures and pH values; assay type: physicochemical
Description: FIG. 1 is a schematic representation of the proteins responsible for producing the bacteriocin of the invention. Either using crude, partially or completely purified form, the chemical characteristics of the bacteriocins can be determined. The determined characteristics include their sensitivities to different enzymes, stability at different temperatures and pH values, etc. Sensitivity of the bacteriocin to proteolytic and lipolytic enzymes, such as trypsin, pepsin, pronase, lipase, etc, was tested. The proteinaceus nature of GP15cin was confirmed. […] The same bacteriocin has optimal activity in the pH range of 4-10.

plantaricin W [GP15cin]
time in which the reduction effect was seen [1]: ≥ 2 h | reduction of indigenous contaminating bacteria levels ([1]; mash from 6 commercial ethanol plants, 15 independent tests): consistent reduction effects seen in all tests; also recorded: reduced indigenous contaminating bacteria levels in all mash samples | acetic acid level produced by contaminating LAB (contaminating LAB): significantly reduced | lactic acid level produced by contaminating LAB (contaminating LAB): significantly reduced | killing activity against non-LAB isolates [2]: showed killing activity | killing spectrum against a list of bacteria ([3]; LAB genera plus Staphylococcus, Enterobacter, Bacillus, Clostridium): extremely broad killing spectrum | killing activity against LAB isolates ([3]; LAB isolates from commercial ethanol plants): broad range killing activity against the vast majority of the LAB isolates | growth of L. fermentum compared to control ([4]; GP15cin alone at 0.1% v/v): all treatment, except GP15cin used at 0.1%, suppressed the growth | growth of L. fermentum compared to control ([4]; GP15cin alone at 1% and 10% v/v): suppressed the growth | activity against its own production host [5]: not active | pH range of optimal activity [6]: 4-10 pH | loss of activity / heat resistance ([6]; after 2 hours at 120° C.): not a complete loss of activity | reversibility of activity loss ([6]; extreme pH values): does not appear to be reversible | loss of activity ([6]; pH 12): complete loss of activity | reduction in activity ([6]; pH values of 1, 2, 3, and 11): 50% | reduction in activity ([6]; temperature of 12.0° C. (so in the source)): 87.5% | reduction in activity ([6]; temperatures of 65-100° C.): 50%

Source: US20150320829A1, “Broad Spectrum Bacteriocin for Control of Unwanted Bacteria” (priority 2014, published 2015)
